{
  "source": "patent US20130142830A1",
  "about": "“Tolerogenic Plasmacytoid Dendritic Cells Co-Expressing Cd8-Alpha And Cd8-Beta And Methods Of Inducing The Differentiation Of Regulatory T Cells Using Same” (UNIVERSITY OF SOUTHERN CALIFORNIA, priority 2011, published 2013)",
  "molecules": {"B1": {"name": "Flt3L: delivered by tumor cells expressing Flt3L; controls differentiation of hematopoietic stem cells into DCs (protein, UniProt P49771 27-235, looked up)", "Fms-related tyrosine kinase 3 …": "TQDCSFQHSPISSDFAVKIRELSDYLLQDYPVTVASNLQDEELCGGLWRLVLAQRWMERLKTVAGSKMQGLLERVNTEIHFVTKCAFQPPPSCLRFVQTNISRLLQETSEQLVALKPWITRQNFSRCLELQCQPDSSTLPPPWSPRPLEATAPTAPQPPLLLLLLLPVGLLLLAAAWCLHWQRTRRRTPRPGEQVPPVPSPQDLLLVEH"}},
  "key": {"[1]": {"tested_on": "naive OVA-specific CD4+ T cells", "assay": "In vitro co-culture of pDC subsets with naive OVA-specific CD4+ T cells, Foxp3 and IL-10 by flow cytometry", "assay_type": "cell-based, mouse", "experimental": "(a) Flow cytometry of intracellular expression of Foxp3 in CD4^+ T cells cultured with CD8α^− CD8β^− pDCs, CD8α^+ CD8β^− or CD8α^+ CD8β^+ pDCs. Sorted CD8α^− CD8β^−, CD8α^+ CD8β^− or CD8α^+ CD8β^+ pDCs were preincubated 12 hours with either medium or Galectin-3 (10 μg/ml). Cells were then washed and co-cultured with OVA-specific CD4^+ T cells at a 1:10 ratio (pDC:T CD4^+) for 5 days in presence of either OVA323-339 (1 μg/ml) and/or TGF-β (1 ng/ml) as indicated. Cells were subsequently stained with CD3, CD4 and CD25 antibodies fixed, permeabilized and stained with an anti-Foxp3 antibody before flow cytometry analysis. […]\n(a) Gene expression of Aldhla1 Aldhla2, and Aldhla3 was assessed by real-time PCR in CD8α^−β^−, CD8α^+β^−, and CD8α^+β^+ pDCs from peripheral lymph nodes or in CD103^− and CD103^+ DCs from mesenteric lymph nodes of Fms-like tyrosine kinase 3-ligand (Flt3-L)-treated mice. […] P-values were calculated with Student's t-test. *P-value <0.05 (CD8α^+β^− pDC and CD8α^+β^+ pDC compared to CD8α^−β^−). ^#P-value <0.05 (CD103^+ cDC compared to CD103^− cDC). […] Cells were subsequently stained with anti-CD11c, anti-mPDCA1, anti-CD8α, and CD8αβ antibodies, and analyzed by flow cytometry to detect RALDH activity. […] Foxp3 expression was analyzed among CD3^+ CD4^+ CD25^+ cells; dot plots are representative of three independent experiments. […]"}, "[2]": {"tested_on": "pDCs", "assay": "TLR7/TLR9 stimulation of pDC subsets (R848, CpG): co-stimulatory molecules, CD8 expression, IFN-α and IL-10 ELISA", "assay_type": "cell-based, mouse", "conditions": "R848 10 μg/ml or CpG 10 μM, 18 hours", "experimental": "(a) Plasmacytoid DCs were isolated by magnetic separation from lymph nodes of Flt3L-treated mice. The surface expression of the costimulation molecules CD80 and CD86 was assessed on CD8α^− CD8β^− pDCs, CD8α^+ CD8β^− pDCs and CD8α^+ CD8β^+ pDCs subtypes after 18 hours of stimulation with R848 (10 μg/ml) or CpG (10 μM). Data are representative of three similar experiments. Shaded histograms represent isotype control antibodies; dashed lines, specific staining of untreated cells; solid black lines, specific staining of CpG treated cells and solid grey lines, specific staining of R848 treated cells. […] Cells were then washed and stained with CD8α and CD8β^− antibodies, APC fluorescence was analyzed by flow cytometry in the CD8α^− CD8β^− pDCs, CD8α^+ CD8β^− pDCs or CD8α^+ CD8β^+ pDCs subpopulations. […] Data are average (mean fluorescence intensity (MFI) at 37° C.)−(MFI at 4° C.)±SEM of three separate experiments. […] The amount of radioactivity related to the number of cells was evaluated in a scintillation counter. […]\nThe main function of DCs is to prime naïve T cells by presenting antigen and providing additional signals through co-stimulatory molecules and production of cytokines. To address whether the populations of pDCs described herein differ in these functions, we stimulated them with TLR ligands and assessed the expression of co-stimulatory molecules along with the cytokine production. […]"}, "[3]": {"tested_on": "DCs", "assay": "In vivo expansion of DCs by Flt3L-expressing tumor cells", "design": "species or system mouse", "conditions": "Flt3L treatment of BALB/c mice", "experimental": "To test whether an in vivo expansion of the population of DCs affects the expression of CD8α or CD8β at the surface of pDCs, tumor cells expressing Flt3L were transferred into BALB/c mice. Flt3L acts on hematopoietic stem cells and controls their differentiation into DCs, this treatment expands the population of DCs by 15 to 20 fold after 14 days without activating the cells. […] The expression of CD8α and CD8β was assessed simultaneously on pDCs (CD11c^+ BST2^+ cells) and on conventional DCs (cDCs, CD11c^+ BST2^− cells). At the surface of cDCs, only CD8α expression was detected (FIG. 2a). […] Accordingly, with the surface phenotype, CD8α gene expression was detected in CD8α^+β^− pDCs while both CD8α and CD8β genes were overexpressed in the CD8α^+β^+ subset (FIG. 2b). As expected CD8β gene expression was never detected in cDCs (FIG. 2b). […] Our data from B2m knockout mice confirmed the presence of CD8α or CD8β pDC repertoire, similar to the level detected in the wild type mice (FIG. 2c). To further assess the expression of CD8α or CD8β at mRNA level, we performed real time quantitative PCR on the sorted subpopulation of pDCs from B2m knockout mice and confirmed the results obtained in FIG. 2c at the mRNA expression level (FIG. 2d). […]"}},
  "data": [
    {"molecule": "CN1c2cc3c(cc2N=C(c2ccc(C(=O)O)cc2)c2ccc4ccccc4c21)C(C)(C)CCC3(C)C", "note": "[LE540]", "values": [
      {"measurement": "effect of RALDH inhibitor on conversion of naive CD4+ T cells by CD8α+β+ and CD8α+β− pDCs", "setting": "[1]; LE540 1 μM with TGF-β", "value": "completely blocked the conversion of naïve CD4^+ T cells"}
    ]},
    {"molecule": "CCOCc1nc2c(N)nc3ccccc3c2n1CC(C)(C)O", "note": "[R848]", "values": [
      {"measurement": "expression of CD8α and CD8β on pDCs following TLR stimulation", "setting": "[2]", "value": "the expression of CD8α and CD8β decreases"}
    ]},
    {"molecule": "Galectin-3", "values": [
      {"measurement": "effect of Galectin-3 pre-incubation of pDCs on conversion of naive CD4+ T cells into Foxp3-expressing cells", "setting": "[1]; Galectin-3 10 μg/ml, 12 hours pre-incubation, TGF-β present", "value": "boost the capacity of pDCs to convert naïve CD4^+ T cells into Foxp3-expressing cells"}
    ]},
    {"molecule": "B1", "values": [
      {"measurement": "level of expression of CD8α and CD8β on pDCs", "setting": "[3]", "value": "does not significantly affect"}
    ]}
  ]
}
